This is an account of results in ChEMBL document CHEMBL1201862, “PubChem BioAssay data set” (2004).

The target of one experiment is Kallikrein-7 (Homo sapiens, UniProt P49862). In words: Fluorescence Intensity-based biochemical primary high throughput dose response assay to identify activators of kallikrein-7 (K7) zymogen.
A short description of experiment [1]: EDANS-DABCYL fluorescence interference, concentration series, dose response, artefact control for kallikrein-7 zymogen activator project, biochemical, fluorescence intensity, triplicate (AID 720493).
Experiment [2] deals with Matrix metalloproteinase-14 (Homo sapiens, UniProt P50281). In words: Dose Response confirmation of uHTS hits for a small molecule inhibitors of MT1-MMP activation in a fluorescence assay set 1. The class given is functional.
The nature of experiment [3]: A375 melanoma cell viability loss, dose response, counter-screen for MITF inhibitor project, CellTiter-Glo luminescence, dry powder, set 4 (AID 624364).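 Further: A375 melanoma cells are MITF independent so this is a counter screen.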 In kind it is functional, cell-based. The following applies: A-375. (Counterscreens check selectivity or assay interference.)
A short description of experiment [4]: A375 melanoma cell cytotoxicity, dose response, counter-screen for MITF inhibitor project, CellTiter-Glo luminescence, dry powder, set 2 (AID 624489).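 Further: actives are compounds lowering A375 viability meaning general cytotoxicity.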 The class given is functional, cell-based. The following applies: A-375.
Experiment [5] can be described thus: inhibitors of non-replicating M. tuberculosis, dose response, luciferase, dry powder (AID 651619). In kind it is functional. The following applies: Mycobacterium tuberculosis.
Experiment [6] in a line: inhibitors of non-replicating M. tuberculosis, dose response, luciferase, dry powder (AID 651620). In kind it is functional. The conditions noted are these: Mycobacterium tuberculosis.
The target of a further experiment is Paired box protein Pax-8 (Homo sapiens, UniProt Q06710). Description: inhibitors of PAX8-driven TPO luciferase reporter, dose response, RMG-I cells, cherry-pick (AID 687027).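 Further: luciferase reporter driven by Pax8 target thyroperoxidase promoter measured by SteadyGlo luminescence.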 The class given is functional, cell-based. In general terms: A reporter such as luciferase makes a cellular process visible.
Experiment [7] can be described thus: A549 cell cytotoxicity, dose response, cytotoxicity control, plate reader, cherry-pick, antagonist series (AID 743412). The class given is functional, cell-based.
Experiment [8] is described as follows: HepG2 cell cytotoxicity, dose response, cytotoxicity control, plate reader, cherry-pick, antagonist series (AID 743416). In kind it is functional, cell-based.
A short description of experiment [9]: LGR2 antagonists, dose response, cell-based, HEK293, CRE-luciferase reporter, cherry pick, set 2 (AID 743343).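 Further: transfected cells were stimulated with diluted bursicon conditioned medium after compound addition.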 In kind it is functional.
Experiment [10] is described as follows: non-specific cell cytotoxicity, dose response, cytotoxicity control for PAX8 inhibitor project, plate reader, dry powder samples (AID 743021). In kind it is functional, cell-based.
Experiment [11] in a line: MC4R antagonists, dose response, counter-screen for LGR2 antagonist project, cell-based, plate reader, cherry pick (AID 743444).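 Further: transfected HEK 293 cells stimulated with alpha-MSH peptide; potency of inhibitors of the alpha-MSH evoked signal.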 The class given is functional.
Experiment [12] is described as follows: HEK293 cell cytotoxicity, dose response, cytotoxicity control, plate reader, cherry-picked samples (AID 743446). In kind it is functional, cell-based.
Experiment [13] is described as follows: HEK293T cell cytotoxicity, dose response, cytotoxicity control for HIV Vif inhibitor project, cherry-picks (AID 652208). The class given is functional, cell-based.
The target in experiment [14] is Kappa-type opioid receptor (Homo sapiens, UniProt P41145). Description: Late-stage fluorescence-based cell-based dose response assay for antagonists of kappa opioid receptor 1 (OPRK1). The class given is functional.
The target in a further experiment is Mu-type opioid receptor (Homo sapiens, UniProt P35372). In words: Late-stage results from the probe development effort to identify antagonists of OPRK1: luminescence-based cell-based dose response OPRM1 counterscreen, Set 2. In kind it is functional.
In experiment [15] the target is Delta-type opioid receptor (Homo sapiens, UniProt P41143). In words: Late-stage results from the probe development effort to identify antagonists of OPRK1: fluorescence-based cell-based dose response OPRD1 counterscreen, Set 2. The class given is functional.
In experiment [16] the target is Sphingosine 1-phosphate receptor 1 (Homo sapiens, UniProt P21453). Description: Late-stage counterscreen for antagonists of kappa opioid receptor 1 (OPRK1): fluorescence-based cell-based dose response assay to identify antagonists of Sphingosine 1-Phosphate Receptor 1 (S1P1). The class given is functional.
Another experiment relates to BHK-21. In words: BHK-21 cell toxicity, dose response, cytotoxicity control, plate reader, cherry-pick samples (AID 687030). The class given is functional, cell-based. The following applies: Mesocricetus auratus.
In another experiment the test system is A549. In words: A549 cell toxicity, dose response, cytotoxicity control, plate reader, cherry-pick samples (AID 687028). In kind it is functional, cell-based. The conditions noted are these: Homo sapiens.
Experiment [17] has as its target C-X-C chemokine receptor type 4 (Homo sapiens, UniProt P61073). Description: SAR analysis of small molecule antagonists of the CXCR6 receptor using a CXCR4 receptor luminescent beta-arrestin counterscreen. In kind it is functional.
Experiment [18] concerns the target T1, C-C chemokine receptor type 6 (Homo sapiens, UniProt P51684).
T1 sequence (P51684 whole entry): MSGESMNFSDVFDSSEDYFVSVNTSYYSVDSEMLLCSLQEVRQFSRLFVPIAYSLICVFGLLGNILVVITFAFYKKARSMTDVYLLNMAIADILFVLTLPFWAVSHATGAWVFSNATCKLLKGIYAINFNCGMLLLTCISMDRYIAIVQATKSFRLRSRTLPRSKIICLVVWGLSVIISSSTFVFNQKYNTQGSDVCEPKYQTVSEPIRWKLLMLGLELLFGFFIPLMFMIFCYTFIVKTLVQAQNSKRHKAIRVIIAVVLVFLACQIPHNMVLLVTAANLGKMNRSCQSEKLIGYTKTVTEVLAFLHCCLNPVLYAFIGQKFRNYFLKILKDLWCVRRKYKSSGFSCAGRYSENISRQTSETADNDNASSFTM
Description: SAR analysis of small molecule antagonists of the CXCR6 receptor using a CCR6 receptor luminescent beta-arrestin counterscreen. In kind it is functional.

A short description of experiment [19]: miR-122 activators in hepatoma reporter cells, dose response, cell-based, Huh7 psiCHECK-miR122, Renilla luciferase, cherry-picked (AID 651956).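 Further: huh7 hepatoma cells stably carrying a psiCHECK-2 miR-122 sensor plasmid; renilla luciferase signal reporting endogenous miR-122 activity after 48 h compound exposure.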 In kind it is functional.
Experiment [20] in a line: HEK293T cytotoxicity, dose response, cytotoxicity control for miR-122 modulator project, cell-based, inhibitor set, cherry-pick, set 2 (AID 720697). The class given is functional.
Experiment [21] is described as follows: HEK293T cytotoxicity, dose response, cytotoxicity control for miR-122 modulator project, cell-based, activator set, cherry-pick (AID 720690).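 Further: HEK293T human cells scored for general mammalian cytotoxicity.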 The class given is functional.

SMILES strings stand for the structures. The source made the active and inactive calls.

Sequence of Kallikrein-7 (P49862 whole entry): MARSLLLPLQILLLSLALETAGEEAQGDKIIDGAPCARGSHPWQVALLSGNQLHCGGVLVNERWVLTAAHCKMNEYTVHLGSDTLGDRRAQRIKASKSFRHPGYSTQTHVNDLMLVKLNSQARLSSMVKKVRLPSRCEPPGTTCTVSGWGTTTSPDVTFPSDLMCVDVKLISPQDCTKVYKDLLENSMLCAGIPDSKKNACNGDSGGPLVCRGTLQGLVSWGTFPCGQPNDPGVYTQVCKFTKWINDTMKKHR
Sequence of Kappa-type opioid receptor (P41145 whole entry): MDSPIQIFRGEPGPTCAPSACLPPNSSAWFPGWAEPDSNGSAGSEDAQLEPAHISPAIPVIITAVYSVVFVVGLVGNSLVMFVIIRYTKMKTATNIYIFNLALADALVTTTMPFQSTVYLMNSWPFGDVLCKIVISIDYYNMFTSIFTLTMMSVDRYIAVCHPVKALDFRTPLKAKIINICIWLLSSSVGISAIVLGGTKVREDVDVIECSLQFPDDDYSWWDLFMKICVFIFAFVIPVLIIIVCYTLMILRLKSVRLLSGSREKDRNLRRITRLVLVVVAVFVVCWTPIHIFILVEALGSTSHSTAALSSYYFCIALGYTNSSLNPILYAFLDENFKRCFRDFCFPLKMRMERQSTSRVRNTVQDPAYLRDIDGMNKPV
Sequence of Sphingosine 1-phosphate receptor 1 (P21453 whole entry): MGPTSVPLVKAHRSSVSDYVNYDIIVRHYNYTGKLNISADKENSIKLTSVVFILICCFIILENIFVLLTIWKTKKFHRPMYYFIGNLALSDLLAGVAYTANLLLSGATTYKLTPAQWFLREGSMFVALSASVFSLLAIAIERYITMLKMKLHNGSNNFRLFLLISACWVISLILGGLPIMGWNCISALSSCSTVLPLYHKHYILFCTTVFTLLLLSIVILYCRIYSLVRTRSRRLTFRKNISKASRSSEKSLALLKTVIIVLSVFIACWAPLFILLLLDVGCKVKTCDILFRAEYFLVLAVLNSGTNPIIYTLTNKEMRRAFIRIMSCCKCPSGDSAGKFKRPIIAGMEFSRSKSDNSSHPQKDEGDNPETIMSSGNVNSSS
Sequence of Mu-type opioid receptor (P35372 whole entry): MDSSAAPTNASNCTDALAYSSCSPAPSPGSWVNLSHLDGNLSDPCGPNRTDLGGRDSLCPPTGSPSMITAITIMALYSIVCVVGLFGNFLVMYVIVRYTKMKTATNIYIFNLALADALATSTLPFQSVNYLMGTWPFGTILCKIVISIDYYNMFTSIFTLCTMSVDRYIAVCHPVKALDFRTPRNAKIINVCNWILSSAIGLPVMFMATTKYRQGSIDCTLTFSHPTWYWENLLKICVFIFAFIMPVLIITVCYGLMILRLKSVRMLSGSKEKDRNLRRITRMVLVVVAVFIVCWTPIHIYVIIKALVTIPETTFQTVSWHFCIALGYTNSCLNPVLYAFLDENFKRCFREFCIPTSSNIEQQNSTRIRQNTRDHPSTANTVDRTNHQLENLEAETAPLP
Sequence of Delta-type opioid receptor (P41143 whole entry): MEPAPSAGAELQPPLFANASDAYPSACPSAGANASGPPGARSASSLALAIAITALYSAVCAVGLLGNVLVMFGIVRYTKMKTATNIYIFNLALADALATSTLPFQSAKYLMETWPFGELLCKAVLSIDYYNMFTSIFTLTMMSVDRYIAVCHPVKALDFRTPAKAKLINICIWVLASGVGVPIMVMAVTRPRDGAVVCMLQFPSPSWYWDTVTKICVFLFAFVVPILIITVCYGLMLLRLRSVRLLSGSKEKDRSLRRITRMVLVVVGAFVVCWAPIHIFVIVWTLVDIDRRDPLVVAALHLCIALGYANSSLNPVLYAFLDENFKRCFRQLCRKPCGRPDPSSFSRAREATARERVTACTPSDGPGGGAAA
Sequence of Paired box protein Pax-8 (Q06710 whole entry): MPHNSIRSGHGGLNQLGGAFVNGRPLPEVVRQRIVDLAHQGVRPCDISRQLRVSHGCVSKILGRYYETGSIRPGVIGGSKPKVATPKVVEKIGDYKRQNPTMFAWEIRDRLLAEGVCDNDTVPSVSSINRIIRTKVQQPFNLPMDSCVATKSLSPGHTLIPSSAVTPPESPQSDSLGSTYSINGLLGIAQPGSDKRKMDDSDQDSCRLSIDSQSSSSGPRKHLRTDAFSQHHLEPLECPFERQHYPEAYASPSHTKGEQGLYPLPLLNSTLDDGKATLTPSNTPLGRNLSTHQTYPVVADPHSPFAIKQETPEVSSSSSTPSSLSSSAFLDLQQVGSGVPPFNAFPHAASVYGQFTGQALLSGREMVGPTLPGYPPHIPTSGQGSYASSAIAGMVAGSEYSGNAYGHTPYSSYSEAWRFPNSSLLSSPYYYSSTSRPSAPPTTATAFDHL
Sequence of C-X-C chemokine receptor type 4 (P61073 whole entry): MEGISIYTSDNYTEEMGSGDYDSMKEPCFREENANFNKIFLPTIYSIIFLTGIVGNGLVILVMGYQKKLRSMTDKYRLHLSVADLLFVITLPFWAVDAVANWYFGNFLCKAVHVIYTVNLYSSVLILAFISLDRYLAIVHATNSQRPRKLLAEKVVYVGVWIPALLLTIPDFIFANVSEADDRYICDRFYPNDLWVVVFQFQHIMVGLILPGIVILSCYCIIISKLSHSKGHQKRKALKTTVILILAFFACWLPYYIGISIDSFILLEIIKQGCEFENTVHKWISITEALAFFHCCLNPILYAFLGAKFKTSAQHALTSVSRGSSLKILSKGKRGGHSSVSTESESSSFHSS

Turning to `COc1ccc(-c2coc3cc(O)c(OC)cc3c2=O)cc1` [CASTANIN], the EC50 at Kallikrein-7 is 9 µM (active); in [1], > 7.73 µM (active).
For the compound `Nc1ccc(NC(=O)c2ccccc2)c2c1C(=O)c1ccccc1C2=O`, in experiment [2], the IC50 was 19.5 µM (active).
As for `C=CCNC1=C(NS(=O)(=O)c2ccc(Br)cc2)C(=O)c2ccccc2C1=O`, the AC50 in [3] and in experiment [4] was > 70 µM (inactive) throughout.
Take `Fc1ccc(-c2nnc(SCc3cn(Cc4ccccc4)nn3)o2)cc1`: the IC90 in experiment [5] and in [6] was 1 µM (active) each time.
Take `Nc1[nH]cnc2c(C3OC(CO)C(O)C3O)cnc1-2` (stereo unspecified): the half-maximal activity concentration (AC50) on Paired box protein Pax-8 is < 0.26 µM (active); in experiment [7] it was < 0.05 µM (active); in [8] it was 0.422 µM (active); in experiment [9], 0.407 µM (active); in experiment [10] it was 19.5 µM (active); in experiment [11] it was 0.539 µM (active). Also, the AC50 in experiment [12] was 0.832 µM (active).
Consider `COC(=O)N1C(=O)[C@](c2ccc(Cl)cc2)(C(C)C)N1C(=O)OC`, for which the AC50 in experiment [13] was 18.7 µM (active).
For `COc1ccccc1C1CCN(Cc2ccc3c(c2)CCC(C)(C)O3)CC1`, the 50% inhibitory concentration (IC50) in experiment [14] was 4.66 µM (active); on Mu-type opioid receptor it was 7.4 µM (active); in experiment [15], > 50 µM (inactive); in experiment [16] it was > 50 µM (inactive).
`COc1cc(NC(=O)c2nccn2C)cc(C(=O)Nc2cccc(C(F)(F)F)c2)c1`: the values for the concentration at half-maximal activity (AC50) with BHK-21 and in the experiment with A549 were 26.2 µM (active) and 19.7 µM (active), respectively.
Turning to `COc1ccc(CN2C3CCCC2CC(NC(=O)c2cc(OC)c(OC)c(OC)c2)C3)cc1` (stereo unspecified), the IC50 in [17] was 57.5 µM (inactive); in experiment [18], > 79 µM (inactive).
Regarding `C[C@H](CO)N1C[C@H](C)[C@H](CN(C)Cc2ccc(C(F)(F)F)cc2)OCCCC[C@H](C)Oc2ccc(NC(=O)CCCN(C)C)cc2C1=O`, the AC50 is 10.3 µM (active) in experiment [19], 17.9 µM (active) in [20] and 15.7 µM (active) in experiment [21].

As a reminder, the EC50 is the midpoint of the concentration-response curve. Broadly, the IC50 is the concentration that inhibits the measured activity by half. As usually defined, the AC50 is the concentration at which the activity in the assay is half-maximal. Usually IC90 stands for the point of the concentration-response curve where the effect stands at 90%.
